This is an account of results in patent publication US10766914B2, “DNA alkylating agents” (OBI PHARMA, INC., priority 2015, dated 2020).

One series deals with H460 cells. The experiment in a line: Proliferation assay in H460 cells (2 hr exposure, AlamarBlue). Type of series: cell-based, human. As to conditions: Homo sapiens, NCI-H460, 2 hrs exposure, wash, 70 hrs growth, read-out: IC 50 in proliferation assay in H460 cells. The gist of the method:
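H460 cells seeded at 4×10^3/well, grown 24 h, then exposed to compound for 2 h at 37 °C. Drug was washed off and cells were regrown 70 h in fresh medium. Viable cells were read by AlamarBlue, and IC50 was taken as the concentration giving 50% growth inhibition.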

The subject of series [1] is H460 NSCLC xenograft. The experiment in a line: Example 4-F antitumor efficacy, ectopic H460 NSCLC xenograft model. Type of series: in vivo, female nude mice (nu/nu). As to conditions: ip, once. From the text:
(§1) Specific pathogen-free homozygous female nude mice (nu/nu, Charles River Laboratories) were used. Mice were given food and water ad libitum and housed in microisolator cages. Four to six week old animals were identified by microchips (Locus Technology, Manchester, Md., USA) at the time of the experiments. All animal studies were approved by the Institutional Animal Care and Use Committee at Threshold Pharmaceuticals, Inc.
(§2) All cell lines were from the American Type Culture Collection (ATCC, Rockville, Md., USA).
(§3) Cells were mixed with Matrigel (50% with exception for 30% in the H460) and 0.2 ml per mouse were subcutaneously implanted to the flank area of the animals. When tumor size reached 100-150 250 mm3, mice were randomized into experimental or vehicle groups with 10 mice/group and treatment was started (Day 1). The tested compounds were formulated in 5% DMSO in D5W. The regimens employed in the examples include IP, QD×5/wk (5 days on, 2 days off) as one cycle, for a total of 2 cycles; IP, once; IP, weekly for total 3 weeks; and IV, weekly for 3 weeks. Tumor growth and body weight were measured twice a week. Tumor volume was calculated as (length×width2)/2. Drug efficacy was assessed as Tumor Growth Inhibition (TGI) and Tumor Growth Delay (TGD). TGI was defined as (1−ΔT/ΔC)×100, where ΔT/ΔC presented the ratio of the change in mean (or median, if variation within the group was relatively large) tumor volume of the treated group and of the control group. TGD was calculated as the extra days for the treated tumor to reach 500 mm3 or 1000 mm3 as compared to the control group. Animals were culled when individual tumor size reached over 2000 mm3 or mean tumor volume exceeded 1000 mm3 in the group. Data are expressed as the mean±SEM. One-way analysis of variance with Dunnett post comparison test (GraphPad Prism 4) or two-tailed student's t-test were used for analysis. A P level <0.05 was considered statistically significant.
(§4) The compounds TH-2953 and TH-3040 were tested in a H460 model. The compounds were dosed as follows. A dose-dependent TH-2953 was given IP once, from 6.25 to 100 mg/kg, comparing with daily IP: 5 doses then 2 days off then 5 more doses starting at 100 mm^3 tumors on day 1 (10 animals per group average tumor volume). TH-3040 was administered IP once. The antitumor effects and the safety of administration are graphically illustrated below.

The nature of series [2]: Example 4-F body weight change, H460 xenograft study. The format is in vivo, female nude mice (nu/nu). As to conditions: ip, once. The procedure: as §3, §4
Series [3] deals with H460 NSCLC xenograft. The series is described as follows: Example 4-G antitumor efficacy, ectopic H460 NSCLC xenograft model. Type of series: in vivo, female nude mice (nu/nu). As to conditions: ip, Q7D × 3.
Description: as §1, §2, §3
(§5) The compounds TH-3040 and TH-3045 were tested in a H460 model. The compounds were dosed as follows. A dose-dependent TH-3040 or TH-3045 was given IP weekly for 3 weeks, from 5 to 45 mg/kg starting at 100 mm^3 tumors on day 1 (10 animals per group average tumor volume). The antitumor effects and the safety of administration are graphically illustrated below.

Series [4] can be described thus: Example 4-G body weight change, H460 xenograft study. As to conditions: ip, Q7D × 3. Type of series: in vivo, female nude mice (nu/nu). The protocol:
as §3, §5

Series [5] deals with H460 NSCLC xenograft. The experiment in a line: Example 4-H antitumor efficacy, ectopic H460 NSCLC xenograft model. Type of series: in vivo, female nude mice (nu/nu). As to conditions: ip, Q7D × 3.
Description: as §1, §2, §3
The compound TH-3040 was tested in a H460 model. The compound was dosed as follows: 5 or 1.5 mg/kg, IP, weekly for 3 weeks at 100 mm^3 tumors on day 1 (10 animals per group average tumor volume), comparing with nab-Paclitaxel. The antitumor effects and the safety of administration are graphically illustrated below.

The nature of series [6]: Example 4-H body weight change, H460 xenograft study. The format is in vivo, female nude mice (nu/nu). As to conditions: ip, Q7D × 3. The procedure: as §3, with “A P level <0.05 was considered statistically significant.” left out
A further series concerns the target T1, AKR1C3 (Homo sapiens, UniProt P42330).
T1 sequence (P42330 1-323): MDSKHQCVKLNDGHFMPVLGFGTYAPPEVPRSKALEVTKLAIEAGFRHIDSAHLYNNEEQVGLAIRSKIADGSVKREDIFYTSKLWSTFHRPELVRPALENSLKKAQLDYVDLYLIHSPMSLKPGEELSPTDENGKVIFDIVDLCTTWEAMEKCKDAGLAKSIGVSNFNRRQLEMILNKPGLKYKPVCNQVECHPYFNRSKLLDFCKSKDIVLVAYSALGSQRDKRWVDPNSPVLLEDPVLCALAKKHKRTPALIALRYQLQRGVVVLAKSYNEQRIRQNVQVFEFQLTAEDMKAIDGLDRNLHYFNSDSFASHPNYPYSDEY
As to conditions: background statement; cited from earlier work.

The conditions of series [7]: background statement; cited from earlier work.

Regarding `C[C@H](OP(=O)(N1CC1)N1CC1)c1ccc([N+](=O)[O-])c(Oc2ccc(-c3ccccc3)cc2)c1` [Compound 3040], the IC50 in the series on H460 cells was 4 nM. The “TGD 500” value with H460 NSCLC xenograft [1] (25 mpk) stood at 17 days; with H460 NSCLC xenograft [1] (100 mpk) it was 20 days; in the series with H460 NSCLC xenograft [3] (5 mpk), 40 days; in the series on H460 NSCLC xenograft [3] (15 mpk), 60 days; with H460 NSCLC xenograft [3] (45 mpk) it was 66 days. Besides, the “TGD 1000” value in the series on H460 NSCLC xenograft [1] (25 mpk) is on record as 17 days; in the series on H460 NSCLC xenograft [1] (100 mpk), 23 days. In addition, the TGI in the series on H460 NSCLC xenograft [1] (25 mpk) was found to be 80.5%; in the series with H460 NSCLC xenograft [1] (100 mpk), 93.7%; in the series with H460 NSCLC xenograft [3] (5 mpk), 103.5%; in the series on H460 NSCLC xenograft [3] (15 mpk) it was 104.3%; in the series on H460 NSCLC xenograft [3] (45 mpk) it was 106.4%; with H460 NSCLC xenograft [5] (1.5 mg/kg) it was 80.6%. For the same compound, the TGI with H460 NSCLC xenograft [5] (5 mg/kg) came out at 101.9%. Also, the “Max. BW loss %” value in series [2] (25 mpk) amounted to 1.3%; in [2] (100 mpk), 0.0%; in [6] (1.5 mg/kg), 7.2%; in [6] (5 mg/kg) it was 5.2%. The “Max BW loss” value in series [4] (5 mpk) is 2.5%; in series [4] (15 mpk), 1.0%; in series [4] (45 mpk), 0.0%. Also, the “TGD500, Days (vs. vehicle)” value was found to be 15 days in the series with H460 NSCLC xenograft [5] (1.5 mg/kg) and 36 days in the series on H460 NSCLC xenograft [5] (5 mg/kg). Besides, the “TGD1000, Days (vs. vehicle)” value turned out to be 19 days in the series with H460 NSCLC xenograft [5] (1.5 mg/kg) and 41 days with H460 NSCLC xenograft [5] (5 mg/kg).

Consider `CS(=O)(=O)OCCN(CCBr)c1c(C(=O)NCCOP(=O)(O)O)cc([N+](=O)[O-])cc1[N+](=O)[O-]` [PR 104], for which, at AKR1C3, the “substrate for AKR1C3” value is “weak substrate”. The “efficacy in clinical trials” value in series [7] is on record as “ineffective”.
